Reference: ChEMBL document CHEMBL1201862, “PubChem BioAssay data set” (2004)
“And” between values parts separate entries of the source, which are not always exact repeats. Identical values can stand only once.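 Assay format: 96-well plates, 48-hour exposure. GI50 is the concentration that inhibits growth by half.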 The source made the active and inactive calls. Rule as the data show it: active = GI50 up to about 1.1 µM and inactive = higher.

Columns and labels:
Experiment in all cases: NCI tumour cell line growth inhibition, 48 h
DU-145 = test system: DU-145
UACC-257 = test system: UACC-257
HOP-92 = test system: HOP-92
HT-29 = test system: HT-29
U-251 = test system: U-251
T47D = test system: T47D
RPMI-8226 = test system: RPMI-8226
OVCAR-8 = test system: OVCAR-8
NCI-H460 = test system: NCI-H460
K562 = test system: K562
NCI-H23 = test system: NCI-H23
SK-MEL-28 = test system: SK-MEL-28
SK-MEL-2 = test system: SK-MEL-2
SNB-19 = test system: SNB-19
MDA-MB-435 = test system: MDA-MB-435
786-0 = test system: 786-0
OVCAR-5 = test system: OVCAR-5
Malme-3M = test system: Malme-3M
MDA-N = test system: MDA-N
HCC 2998 = test system: HCC 2998

Measured: GI50

NCCSc1nc(-c2ccccc2)c(-c2ccccc2)o1
inactive: DU-145 > 100 µM | UACC-257 41.2 µM | HOP-92 > 100 µM | HT-29 31.7 µM | U-251 > 100 µM | T47D 25.2 µM | RPMI-8226 88.3 µM | OVCAR-8 > 100 µM | NCI-H460 65.9 µM | K562 > 100 µM | NCI-H23 17.7 µM | SK-MEL-28 > 100 µM | SK-MEL-2 > 100 µM | SNB-19 > 100 µM | MDA-MB-435 > 100 µM | 786-0 32.1 µM | OVCAR-5 > 100 µM | Malme-3M > 100 µM

COc1ccccc1/C=C/c1ccnc2ccccc12
inactive: DU-145 16.4 µM | UACC-257 16 µM | HOP-92 12.8 µM | HT-29 12.8 µM | MDA-N 11.6 µM | U-251 11.9 µM | RPMI-8226 8.49 µM | OVCAR-8 15.4 µM | NCI-H460 15.5 µM | HCC 2998 17.5 µM | K562 10.7 µM | NCI-H23 13.6 µM | SK-MEL-28 17.4 µM | SK-MEL-2 16.4 µM | SNB-19 14.3 µM | MDA-MB-435 7.16 µM | 786-0 14.3 µM | OVCAR-5 17.3 µM | Malme-3M 11.7 µM

CCOc1ccc(/N=N/c2c(-c3ccccc3)nn(C(=O)CC(=O)Nc3ccccc3Cl)c2-c2ccccc2)cc1
inactive: UACC-257 80.4 µM | HOP-92 48.8 µM | HT-29 33.7 µM | U-251 48.9 µM | RPMI-8226 37.4 µM | OVCAR-8 89.7 µM | NCI-H460 46.5 µM | HCC 2998 41.5 µM | K562 30.2 µM | NCI-H23 56.9 µM | SK-MEL-28 27.7 µM | SK-MEL-2 > 100 µM | SNB-19 > 100 µM | 786-0 > 100 µM | OVCAR-5 > 100 µM | Malme-3M > 100 µM

CC(C)(C)CC(C)(C)c1cc2c(O)c(c1)Cc1cc(C(C)(C)CC(C)(C)C)cc(c1O)Cc1cc(C(C)(C)CC(C)(C)C)cc(c1O)Cc1cc(C(C)(C)CC(C)(C)C)cc(c1O)C2
inactive: UACC-257 > 100 µM | HOP-92 > 100 µM | HT-29 > 100 µM | U-251 > 100 µM | RPMI-8226 > 100 µM | OVCAR-8 > 100 µM | NCI-H460 > 100 µM | HCC 2998 > 100 µM | K562 > 100 µM | NCI-H23 > 100 µM | SK-MEL-28 > 100 µM | SK-MEL-2 > 100 µM | SNB-19 > 100 µM | 786-0 > 100 µM | OVCAR-5 > 100 µM | Malme-3M > 100 µM

CCOC(=N)CC(=O)Nc1ccccc1
inactive: UACC-257 > 46.5 µM | HOP-92 > 10 µM | HT-29 > 46.5 µM | U-251 > 100 µM | RPMI-8226 15.9 µM | OVCAR-8 > 21.5 µM | NCI-H460 > 46.5 µM | HCC 2998 > 31.6 µM | K562 22.1 µM | NCI-H23 > 46.5 µM | SK-MEL-28 > 46.5 µM | SK-MEL-2 > 31.6 µM | SNB-19 > 100 µM | 786-0 > 46.5 µM | OVCAR-5 > 100 µM | Malme-3M > 46.5 µM

Cc1c/c(=N/NC(=O)c2ccncc2)n2nc(N)sc2n1
inactive: DU-145 > 100 µM | UACC-257 > 100 µM | HOP-92 > 100 µM | HT-29 > 100 µM | U-251 > 100 µM | RPMI-8226 > 100 µM | OVCAR-8 > 100 µM | NCI-H460 > 100 µM | HCC 2998 > 100 µM | K562 > 100 µM | NCI-H23 > 100 µM | SK-MEL-28 > 100 µM | SK-MEL-2 > 100 µM | SNB-19 > 100 µM | MDA-MB-435 > 100 µM | 786-0 > 100 µM | OVCAR-5 > 100 µM

N=C1N(c2ccccc2)C(=O)C23CCCC2C13N1CCOCC1 (configuration not stated)
inactive: UACC-257 > 100 µM | HOP-92 > 100 µM | HT-29 > 100 µM | U-251 > 100 µM | RPMI-8226 > 100 µM | OVCAR-8 > 100 µM | NCI-H460 > 100 µM | HCC 2998 > 100 µM | K562 > 100 µM | NCI-H23 > 100 µM | SK-MEL-28 > 100 µM | SK-MEL-2 > 100 µM | SNB-19 > 100 µM | 786-0 > 100 µM | OVCAR-5 > 100 µM | Malme-3M > 100 µM

CC(=O)OC1C/C(C)=C/CCC(C)/C=C/C2(C)CCC(C(C)(C)O)C12 (configuration not stated)
inactive: UACC-257 26.1 µM | HOP-92 18.5 µM | HT-29 33.4 µM | U-251 39.4 µM | RPMI-8226 23.2 µM | OVCAR-8 57 µM | NCI-H460 39.2 µM | HCC 2998 57.4 µM | K562 36.7 µM | NCI-H23 42.5 µM | SK-MEL-28 72.1 µM | SK-MEL-2 34.4 µM | SNB-19 > 100 µM | 786-0 65 µM | OVCAR-5 > 100 µM | Malme-3M 63 µM

N=C(N)NCCCC(NC(=O)c1c2ccccc2nc2ccccc12)C(=O)O (configuration not stated)
inactive: DU-145 > 100 µM | UACC-257 > 100 µM | HOP-92 > 100 µM | HT-29 > 100 µM | MDA-N > 100 µM | U-251 > 100 µM | RPMI-8226 > 100 µM | OVCAR-8 > 100 µM | NCI-H460 > 100 µM | HCC 2998 > 100 µM | K562 > 100 µM | NCI-H23 > 100 µM | SK-MEL-28 > 100 µM | SK-MEL-2 > 100 µM | SNB-19 > 100 µM | MDA-MB-435 > 100 µM | 786-0 > 100 µM | OVCAR-5 > 100 µM

O=C1C=Cc2c(-c3ccccc3)oc3cccc1c23
inactive: UACC-257 35.4 µM | HOP-92 13.4 µM | HT-29 23.4 µM | U-251 8.91 µM | RPMI-8226 3.97 µM | OVCAR-8 9.31 µM | NCI-H460 5.07 µM | HCC 2998 25.6 µM | K562 17.2 µM | NCI-H23 16.4 µM | SK-MEL-28 56.9 µM | SK-MEL-2 67.1 µM | SNB-19 24 µM | 786-0 23.7 µM | OVCAR-5 26.4 µM | Malme-3M 37 µM

COC(=O)C1CCC(=S)N1C(C)=O (configuration not stated)
inactive: DU-145 > 100 µM | UACC-257 > 100 µM | HOP-92 > 100 µM | HT-29 > 100 µM | MDA-N > 100 µM | U-251 > 100 µM | RPMI-8226 > 100 µM | OVCAR-8 > 100 µM | NCI-H460 > 100 µM | HCC 2998 > 100 µM | K562 > 100 µM | NCI-H23 > 100 µM | SK-MEL-28 > 100 µM | SK-MEL-2 > 100 µM | SNB-19 > 100 µM | MDA-MB-435 > 100 µM | 786-0 > 100 µM | OVCAR-5 > 100 µM | Malme-3M > 100 µM

O=Cc1ccc(OC[C@H]2COC(=O)N2)cc1
inactive: DU-145 > 100 µM | UACC-257 > 100 µM | HT-29 > 100 µM | U-251 > 100 µM | T47D > 100 µM | OVCAR-8 > 100 µM | NCI-H460 > 100 µM | HCC 2998 56.5 µM | K562 > 100 µM | NCI-H23 > 100 µM | SK-MEL-28 > 100 µM | SK-MEL-2 > 100 µM | SNB-19 > 100 µM | MDA-MB-435 > 100 µM | 786-0 > 100 µM | OVCAR-5 > 100 µM | Malme-3M > 100 µM

Clc1ccc(C2N3CCCCC3[C@@H]3c4[nH]c5ccccc5c4CCN23)cc1 (some centres not stated)
inactive: UACC-257 83 µM | HOP-92 > 100 µM | HT-29 22.5 µM | U-251 57.9 µM | RPMI-8226 90.2 µM | OVCAR-8 > 100 µM | NCI-H460 61.8 µM | HCC 2998 34.9 µM | K562 38 µM | NCI-H23 42.9 µM | SK-MEL-28 > 100 µM | SK-MEL-2 34 µM | SNB-19 93.3 µM | 786-0 > 100 µM | OVCAR-5 56.8 µM | Malme-3M 19.7 µM

Cc1ccccc1NC(=O)CC1C(=O)Nc2ccccc2[S+]1[O-] (configuration not stated)
inactive: UACC-257 > 100 µM | HOP-92 52.7 µM | HT-29 > 100 µM | U-251 51.1 µM | RPMI-8226 > 100 µM | OVCAR-8 47.9 µM | NCI-H460 > 100 µM | HCC 2998 > 100 µM | K562 > 100 µM | NCI-H23 > 100 µM | SK-MEL-28 > 100 µM | SK-MEL-2 > 100 µM | SNB-19 > 100 µM | 786-0 49.7 µM | OVCAR-5 > 100 µM | Malme-3M > 100 µM

COC(=O)[C@@H]1[C@H](O)[C@H](C)[C@H](O)[C@@](C)(O)/C=C\C=C(\C)C(=O)Nc2c(C)c(OC(C)=O)c3c(c2O)C(=O)C(C)=C2OCOC(=C23)/C(C)=C/[C@@](C)(O)[C@H](O)[C@@H](C)[C@H]1OC(C)=O
inactive: DU-145 > 66.8 µM | UACC-257 27.2 µM and 80.4 µM | HOP-92 > 66.8 µM | HT-29 38.5 µM and 56.6 µM | U-251 17.3 µM | RPMI-8226 31.8 µM | OVCAR-8 31.8 µM | NCI-H460 49 µM | HCC 2998 21.8 µM | K562 23.4 µM | NCI-H23 27.4 µM | SK-MEL-28 > 100 µM | SK-MEL-2 37.2 µM | SNB-19 > 100 µM and 91.4 µM | 786-0 > 100 µM and 69.5 µM | OVCAR-5 > 66.8 µM | Malme-3M 31.3 µM

O=C(Nc1ccccc1)c1cc2cc(CCl)ccc2oc1=O
inactive: DU-145 > 100 µM | UACC-257 > 100 µM | HOP-92 > 100 µM | HT-29 8.57 µM | U-251 47 µM | T47D > 100 µM | RPMI-8226 > 100 µM | OVCAR-8 > 100 µM | NCI-H460 > 100 µM | HCC 2998 > 100 µM | K562 62.2 µM | NCI-H23 16.5 µM | SK-MEL-28 > 100 µM | SK-MEL-2 4.8 µM | SNB-19 80.4 µM | MDA-MB-435 > 100 µM | 786-0 48.8 µM | OVCAR-5 > 100 µM | Malme-3M > 100 µM
